Entries after “also recorded” stand apart in the source; their conditions may differ. Where a SMILES comes first, the peptide text is derived from it. Primed or numbered codes have the meaning given here. Where no end group is shown, it is not given here. Side-chain parts run from the residue outwards. [ ]: non-standard residue; d: D form. The star is where a group is joined. CB‑TE1A1P = O=C(CN1CCCN2CCN(CCCN(CP(=O)(O)O)CC2)CC1)*; cinnamoyl = O=C(/C=C/c1ccccc1)*; PEG12′ = not defined here
Columns and labels:
[1] = tested on: Gr-1 stained neutrophils; experiment: Immunofluorescence microscopy of CFA-injected mouse paws; assay type: in vivo; conditions: inflamed mouse paw, 5 h postprobe injection, frozen sections
[2] = biological target: T1, FPR1 (Homo sapiens, UniProt P21462); experiment: FPR1 receptor internalization in GFP-FPR1 HEK293T cells; assay type: cell-based; conditions: fluorescence imaging, vs untreated controls
T1 sequence (P21462 1-350): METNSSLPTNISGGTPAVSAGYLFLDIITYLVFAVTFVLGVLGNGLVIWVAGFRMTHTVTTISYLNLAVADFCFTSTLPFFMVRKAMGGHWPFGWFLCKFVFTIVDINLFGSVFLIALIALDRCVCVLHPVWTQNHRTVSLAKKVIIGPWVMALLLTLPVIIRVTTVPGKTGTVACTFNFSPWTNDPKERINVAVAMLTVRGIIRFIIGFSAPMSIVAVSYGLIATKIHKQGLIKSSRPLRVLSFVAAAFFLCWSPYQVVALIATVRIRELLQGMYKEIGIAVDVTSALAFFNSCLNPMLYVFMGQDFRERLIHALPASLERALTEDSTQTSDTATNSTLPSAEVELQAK

[3] = Gamma counting of Percoll-separated blood fractions; assay type: in vivo, cynomolgus macaques (Macaca fascicularis); conditions: Percoll gradient separation: RBC pellet, buffy coat, plasma
[4] = tested on: lung granulomas; conditions: cynomolgus monkey, in vivo

cinnamoyl-F(D)LF(D)LFK-PEG12-Cy3 [Cy3-FLFLF]
Cy3-FLFLF labeling of cells in tissue / colocalization with Gr-1 [1]: labeled neutrophils could be detected in tissues by immunofluorescence, although other non-Gr-1-stained cells were detectable; also recorded: variable amounts of colocalization of Cy3-FLFLF and Gr-1

FLFLF-PEG12: pegylated FLFLF tested for FPR1 internalization (cinnamoyl-F[dL]F[dL]FK([PEG12′-CB‑TE1A1P]); also: CB-TE1A1P chelating 64Cu)
FPR1 internalization / signaling [2]: did not lead to internalized receptor

CC(C)C[C@@H](NC(=O)[C@H](Cc1ccccc1)NC(=O)[C@@H](CC(C)C)NC(=O)[C@H](Cc1ccccc1)NC(=O)C=Cc1ccccc1)C(=O)N[C@@H](Cc1ccccc1)C(=O)O [FLFLF, N-cinnamoyl-F-(D)L-F-(D)L-F] (HELM PEPTIDE1{[O=C(C=Cc1ccccc1)[*:2]].F.[dL].F.[dL].F}$$$$V2.0)
Distribution of FLFLF in peripheral blood fractions [3]: remains in the plasma fraction rather than being bound to blood cells

2-deoxy-2-(^18F)fluoro-D-glucose [^18F-FDG]
18F-FDG liver uptake by PET/CT [4]: minimal
18F-FDG uptake in lung granulomas by PET/CT [4]: readily identifiable above lung background

Source: article PMC8744071 (ACS infectious diseases, 2021)
